The source made the active and inactive calls.
How the values were obtained:
Cytochrome P450 2D6 = Cytochrome P450 2D6 (Homo sapiens, UniProt P10635);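 note: CYP2D6 member of a cytochrome P450 panel assay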
Cytochrome P450 1A2 = molecular target: T1, Cytochrome P450 1A2 (Homo sapiens, UniProt P05177);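 note: PubChem cytochrome P450 panel assay, CYP1A2 panel member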
T1 sequence (P05177 whole entry): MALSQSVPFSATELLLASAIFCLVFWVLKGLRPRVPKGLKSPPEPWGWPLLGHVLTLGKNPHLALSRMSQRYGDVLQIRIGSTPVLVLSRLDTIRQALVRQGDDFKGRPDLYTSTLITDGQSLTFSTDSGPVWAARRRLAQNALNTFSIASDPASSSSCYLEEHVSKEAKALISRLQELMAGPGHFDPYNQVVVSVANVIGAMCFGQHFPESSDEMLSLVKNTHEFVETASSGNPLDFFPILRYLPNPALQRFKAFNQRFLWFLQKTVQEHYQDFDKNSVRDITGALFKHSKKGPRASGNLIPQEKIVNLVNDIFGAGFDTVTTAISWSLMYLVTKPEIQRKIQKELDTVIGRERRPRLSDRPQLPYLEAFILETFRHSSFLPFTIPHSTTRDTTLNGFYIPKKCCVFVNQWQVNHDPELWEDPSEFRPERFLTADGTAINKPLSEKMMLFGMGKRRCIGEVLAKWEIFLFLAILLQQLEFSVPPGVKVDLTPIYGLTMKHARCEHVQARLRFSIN

Cytochrome P450 2C19 = Cytochrome P450 2C19 (Homo sapiens, UniProt P33261); assay: Cytochrome panel assay with activity outcomes. Panel member name: p450-cyp2c19 Compounds with AC50 equal or less than 10 uM are considered active; assay type: functional
Cytochrome P450 2C19, sequence (P33261 whole entry): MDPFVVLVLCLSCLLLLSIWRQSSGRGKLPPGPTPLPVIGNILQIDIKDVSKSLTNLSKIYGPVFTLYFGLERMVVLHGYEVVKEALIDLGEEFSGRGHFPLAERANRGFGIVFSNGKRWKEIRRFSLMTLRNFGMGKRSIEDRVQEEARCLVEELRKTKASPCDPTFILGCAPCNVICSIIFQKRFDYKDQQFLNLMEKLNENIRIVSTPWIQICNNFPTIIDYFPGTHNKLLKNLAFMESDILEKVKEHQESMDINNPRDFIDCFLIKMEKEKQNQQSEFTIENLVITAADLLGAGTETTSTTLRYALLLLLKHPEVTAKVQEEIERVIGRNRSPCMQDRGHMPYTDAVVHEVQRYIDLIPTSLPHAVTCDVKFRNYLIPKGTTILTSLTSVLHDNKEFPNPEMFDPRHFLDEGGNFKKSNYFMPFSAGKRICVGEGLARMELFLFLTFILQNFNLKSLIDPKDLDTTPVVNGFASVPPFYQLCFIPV

Cytochrome P450 2C9 = Cytochrome P450 2C9 (Homo sapiens, UniProt P11712)
Cytochrome P450 2C9, sequence (P11712 whole entry): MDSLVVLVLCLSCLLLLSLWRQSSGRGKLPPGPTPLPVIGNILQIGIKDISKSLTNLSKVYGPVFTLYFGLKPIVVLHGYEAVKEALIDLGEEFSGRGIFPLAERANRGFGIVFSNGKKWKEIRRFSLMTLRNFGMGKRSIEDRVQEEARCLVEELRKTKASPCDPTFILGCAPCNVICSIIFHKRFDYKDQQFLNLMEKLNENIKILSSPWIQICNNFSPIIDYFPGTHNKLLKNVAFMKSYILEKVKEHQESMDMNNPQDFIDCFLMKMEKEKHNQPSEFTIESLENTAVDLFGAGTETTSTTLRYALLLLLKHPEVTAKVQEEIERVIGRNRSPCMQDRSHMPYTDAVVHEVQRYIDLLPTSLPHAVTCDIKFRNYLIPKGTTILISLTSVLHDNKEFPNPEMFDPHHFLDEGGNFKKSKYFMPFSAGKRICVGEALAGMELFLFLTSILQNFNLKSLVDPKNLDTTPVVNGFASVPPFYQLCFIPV

[1] = molecular target: T2, Corticotropin-releasing factor receptor 2/Corticotropin-releasing factor-binding protein (Homo sapiens, UniProt P24387+Q13324); assay: activators of CRF receptor 2 with binding protein – uHTS hits, confirmation (AID 602473); assay type: functional; conditions: read-out: EC50_Mean
T2 sequence (Q13324 whole entry): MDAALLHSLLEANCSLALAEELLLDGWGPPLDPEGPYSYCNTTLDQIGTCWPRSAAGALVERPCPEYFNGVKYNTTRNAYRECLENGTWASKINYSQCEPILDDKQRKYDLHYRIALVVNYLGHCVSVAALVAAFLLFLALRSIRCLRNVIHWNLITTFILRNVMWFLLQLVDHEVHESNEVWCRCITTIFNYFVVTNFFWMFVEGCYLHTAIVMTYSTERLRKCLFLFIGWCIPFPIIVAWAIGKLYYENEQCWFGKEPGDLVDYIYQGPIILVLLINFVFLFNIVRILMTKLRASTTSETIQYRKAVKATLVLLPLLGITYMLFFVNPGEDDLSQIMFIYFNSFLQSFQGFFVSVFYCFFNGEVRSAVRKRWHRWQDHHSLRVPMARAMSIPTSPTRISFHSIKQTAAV
T2 sequence (P24387 whole entry): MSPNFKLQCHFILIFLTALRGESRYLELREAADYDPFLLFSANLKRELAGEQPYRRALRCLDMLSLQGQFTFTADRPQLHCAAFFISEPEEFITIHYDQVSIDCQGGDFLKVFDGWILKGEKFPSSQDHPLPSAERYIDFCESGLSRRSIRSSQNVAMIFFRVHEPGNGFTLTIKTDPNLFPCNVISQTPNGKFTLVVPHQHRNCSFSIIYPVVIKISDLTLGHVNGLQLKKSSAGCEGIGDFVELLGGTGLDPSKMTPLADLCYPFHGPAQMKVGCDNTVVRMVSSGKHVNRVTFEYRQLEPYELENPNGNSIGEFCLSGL

[2] = molecular target: T3, Rac GTPase-activating protein 1 (Homo sapiens, UniProt Q9H0H5); assay: MgcRacGAP GTPase-activating activity inhibitors, confirmation, biochemical, ADP Hunter fluorescence, primary and confirmatory (AID 624330); assay type: functional
T3 sequence (Q9H0H5 whole entry): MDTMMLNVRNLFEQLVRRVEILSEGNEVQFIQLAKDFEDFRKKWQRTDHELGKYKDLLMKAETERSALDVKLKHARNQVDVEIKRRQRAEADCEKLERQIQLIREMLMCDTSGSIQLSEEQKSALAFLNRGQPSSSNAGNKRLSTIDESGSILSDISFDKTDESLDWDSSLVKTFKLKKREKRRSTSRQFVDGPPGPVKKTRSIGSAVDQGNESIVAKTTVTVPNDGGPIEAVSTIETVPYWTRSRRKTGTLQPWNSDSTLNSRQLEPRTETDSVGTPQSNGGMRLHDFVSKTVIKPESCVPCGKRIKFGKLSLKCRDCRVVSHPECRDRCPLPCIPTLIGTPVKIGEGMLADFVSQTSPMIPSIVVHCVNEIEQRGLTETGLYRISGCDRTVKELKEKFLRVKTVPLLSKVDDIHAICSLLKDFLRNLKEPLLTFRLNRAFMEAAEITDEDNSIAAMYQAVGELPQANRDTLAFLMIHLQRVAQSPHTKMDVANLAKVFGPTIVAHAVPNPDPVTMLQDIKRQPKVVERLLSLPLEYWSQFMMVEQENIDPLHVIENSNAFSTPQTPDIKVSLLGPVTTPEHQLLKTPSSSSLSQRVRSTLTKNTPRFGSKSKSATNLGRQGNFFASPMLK

[3] = test system: Streptococcus sp. 'group A'; assay: growth inhibition of control SK(-) GAS strain, dose response, counter-screen for streptokinase expression inhibitor project, luminescence, kanamycin, BacTiterGlo, confirmation (AID 1900); assay type: functional, organism-based
Streptokinase A = molecular target: T4, Streptokinase A (Streptococcus pyogenes serotype M1, UniProt P10520); assay: S. pyogenes streptokinase expression inhibitors, potency, dose response, plasminogen activation absorbance, OD405 (AID 1914); assay type: functional, Streptococcus pyogenes M1 GAS;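 note: secreted streptokinase activity via plasminogen activation per viability signal from cell pellet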
T4 sequence (P10520 whole entry): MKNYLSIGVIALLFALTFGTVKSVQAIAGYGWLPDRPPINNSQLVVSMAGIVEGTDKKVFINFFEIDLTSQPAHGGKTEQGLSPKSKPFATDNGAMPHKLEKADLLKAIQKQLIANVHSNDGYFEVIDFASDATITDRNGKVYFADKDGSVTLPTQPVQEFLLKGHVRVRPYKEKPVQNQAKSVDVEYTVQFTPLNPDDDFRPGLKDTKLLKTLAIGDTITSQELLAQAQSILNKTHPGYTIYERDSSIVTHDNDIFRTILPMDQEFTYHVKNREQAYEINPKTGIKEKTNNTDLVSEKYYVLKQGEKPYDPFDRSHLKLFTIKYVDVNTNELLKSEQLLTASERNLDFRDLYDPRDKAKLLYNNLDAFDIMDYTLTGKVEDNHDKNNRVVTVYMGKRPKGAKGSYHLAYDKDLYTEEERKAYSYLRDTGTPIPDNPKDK

Streptococcus = assay: Group A Streptococcus viability loss, dose response, counter-screen for streptokinase expression inhibitor project, luminescence, BacTiterGlo (AID 1915); assay type: functional, organism-based;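 note: potency for reduction of bacterial viability or growth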

Cytochrome P450 2D6, sequence (P10635 whole entry): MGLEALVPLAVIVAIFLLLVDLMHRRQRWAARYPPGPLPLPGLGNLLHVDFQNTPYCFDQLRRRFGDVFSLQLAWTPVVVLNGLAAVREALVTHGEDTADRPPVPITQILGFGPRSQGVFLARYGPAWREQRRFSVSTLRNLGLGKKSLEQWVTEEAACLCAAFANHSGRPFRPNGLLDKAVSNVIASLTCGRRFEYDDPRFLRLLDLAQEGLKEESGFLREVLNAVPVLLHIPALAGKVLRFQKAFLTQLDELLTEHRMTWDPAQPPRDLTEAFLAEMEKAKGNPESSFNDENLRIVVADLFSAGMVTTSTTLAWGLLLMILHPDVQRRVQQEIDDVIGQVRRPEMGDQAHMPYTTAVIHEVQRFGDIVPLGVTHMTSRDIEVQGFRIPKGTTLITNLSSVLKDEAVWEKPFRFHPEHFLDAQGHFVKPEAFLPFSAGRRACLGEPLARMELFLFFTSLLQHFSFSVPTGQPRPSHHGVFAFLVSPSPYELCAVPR

COc1ccc(C(=O)N2CCC[C@@]3(CCN(CC(C)C)C3)C2)cc1
AC50 (Cytochrome P450 2D6): 15.8 µM (inconclusive)
AC50 (Cytochrome P450 1A2): 31.6 µM (inconclusive)

CC(=O)NC(CCS(C)(=O)=O)C(=O)Nc1c(F)cccc1F (centres undefined)
AC50 (Cytochrome P450 2C19): inconclusive

COc1ccc(C(=O)O[C@H]2CC[C@@]3(C)[C@H]4CC[C@H]5[C@]3(C[C@]3(O)[C@H]6CN7C[C@H](C)CC[C@H]7[C@](C)(O)[C@]6(O)[C@H](O)C[C@]53O)O[C@]24O)cc1OC
AC50 (Cytochrome P450 2C19): inconclusive

CCc1cc2c(=O)c(-c3nc4ccccc4n3C)c(C)oc2c(CN(CC)CC)c1O
AC50 (Cytochrome P450 2C19; read-out: AC50): 3.55 µM (inconclusive)

Cn1cc(-c2nc3cnc(N4CCNCC4)nc3n(CCc3ccccc3)c2=O)c2ccccc21
AC50 (Cytochrome P450 2D6): 39.8 µM (inconclusive)
AC50 (Cytochrome P450 1A2): 15.8 µM (inconclusive)

O=C(CNC(=O)c1cccs1)NCC(=O)OCc1ccc(Cl)cc1
AC50 (Cytochrome P450 2C9): 0.126 µM (inconclusive)

Cc1ccc(-c2ncccc2OC(=O)C23CC4CC(CC(C4)C2)C3)cc1
AC50 (Cytochrome P450 2D6): 22.4 µM (inconclusive)
AC50 (Cytochrome P450 2C9): 31.6 µM (inconclusive)

O=C(NCc1cc(C(F)(F)F)ccc1Cl)c1cccc2c1C(=O)c1ccc(N3CCC(Cc4ccccc4)CC3)cc1S2(=O)=O
EC50 [1]: 5.99 µM (active)

COc1ccc2nc(N3CCCC(C(=O)NCCCN4CCN(C)CC4)C3)sc2c1 (centres undefined)
AC50 (Cytochrome P450 2C9): 4.47 µM (inconclusive)
AC50 (Cytochrome P450 1A2): 12.6 µM (inconclusive)
AC50 (Cytochrome P450 2C19): inconclusive

O=c1c(-c2ccc(F)cc2)nc2cnc(Oc3ccccc3)nc2n1Cc1cccs1
AC50 (Cytochrome P450 2C9): 2.51 µM (inconclusive)

Cc1ccc(S(=O)(=O)N2CCC(=O)N(C(COCc3ccc(Cl)c(Cl)c3)Cc3ccccc3)CC2)cc1 (centres undefined)
EC50 [1]: 4.29 µM (active)

CCOC(=O)c1ccc(NC(=O)COc2ccccc2OC)cc1
AC50 (Cytochrome P450 1A2): 7.08 µM (inconclusive)
AC50 (Cytochrome P450 2C19; read-out: AC50): 3.98 µM (inconclusive)

N=C(N)SCC(=O)O
AC50 (Cytochrome P450 2C19): inconclusive

Oc1ccc(Cc2ccccc2Cl)c(O)c1
IC50 [2]: 54.8 µM (active)

CCOC(=O)C1CCCN(C(=O)CSCc2ccccc2)C1 (centres undefined)
AC50 (Cytochrome P450 2D6): 15.8 µM (inconclusive)

COCCN=C(S)NC1CC2CCCC(C1)N2Cc1cccs1 (centres undefined)
AC50 (Cytochrome P450 2C9): 39.8 µM (inconclusive)

CCOc1cc(/C=N\n2nnnc2N)ccc1O
IC50 [2]: 32.1 µM (active)

CCOC(=O)c1sc(/N=C/c2ccc(O)cc2O)cc1C
IC50 [2]: 22.4 µM (active)

Cc1cc(Oc2ccc(-c3ccccc3)cc2)nc(N2CCOCC2)n1
EC50 [3]: 49.7 µM (active)
EC50 (Streptokinase A): 35.4 µM (active)
EC50 (Streptococcus): > 150 µM (not active)

COc1ccc(N=Nc2cc(-c3ccccc3)ccc2O)cc1
EC50 [3]: 34.7 µM (active)
EC50 (Streptokinase A): 7.22 µM (active)
EC50 (Streptococcus): > 150 µM (not active)

CC(C)CN1CC[C@@]2(CCCN(C(=O)c3cc(C(F)(F)F)cc(C(F)(F)F)c3)C2)C1
AC50 (Cytochrome P450 1A2): 25.1 µM (inconclusive)
AC50 (Cytochrome P450 2C19; read-out: AC50): 39.8 µM (inconclusive)

COc1ccc2[nH]cc(CCNc3ccnc(-c4ccccc4C(F)(F)F)n3)c2c1
AC50 (Cytochrome P450 2D6): 15.8 µM (inconclusive)

CCOC(=O)c1[nH]c2ccccc2c1N=C(S)Nc1cccc(C)c1
IC50 [2]: 115 µM (active)

c1nc(NCCN2CCOCC2)c2cc(-c3ccc4c(c3)OCO4)ccc2n1
AC50 (Cytochrome P450 2C19; read-out: AC50): 39.8 µM (inconclusive)

COc1ccc(NC(=O)NCCCN2CCCCC2C)cc1 (centres undefined)
AC50 (Cytochrome P450 2C9): 1.26 µM (inconclusive)
AC50 (Cytochrome P450 1A2): 25.1 µM (inconclusive)
AC50 (Cytochrome P450 2C19; read-out: AC50): 39.8 µM (inconclusive)

CC(=O)N1CCN(c2ccccc2NC(=O)COc2ccc(Br)cc2)CC1
AC50 (Cytochrome P450 2D6): 15.8 µM (inconclusive)

O=C(NC(=S)Nc1ccc(-c2nc3ncccc3o2)cc1)c1ccccc1F
EC50 [3]: 84.3 µM (active)
EC50 (Streptokinase A): > 150 µM (not active)
EC50 (Streptococcus): 21.3 µM (active)

COc1ccc(-n2c(C)cc(/C=C3/SC(=S)N(C)C3=O)c2C)cc1
EC50 [1]: > 53 µM (inactive)

Cc1cnc(CNc2ncncc2-c2ccc3c(c2)OCO3)cn1
AC50 (Cytochrome P450 2D6): 20 µM (inconclusive)

Clc1cccc(Nc2ncnc3c2cnn3-c2ccccc2)c1
EC50 [3]: 7.78 µM (active)
EC50 (Streptokinase A): > 150 µM (not active)
EC50 (Streptococcus): 6.82 µM (active)

CCOC(=O)c1cc2sc(C)cc2n1CC(=O)N1CCN(C(=O)c2ccco2)CC1
AC50 (Cytochrome P450 2C9): 20 µM (inconclusive)
AC50 (Cytochrome P450 1A2): 31.6 µM (inconclusive)

COc1ccc(O[C@H]2C=C[C@@H](c3ccccc3)O[C@H]2CO/N=C\C[C@@H]2C=C[C@H](OC(C)=O)[C@H](COC(C)=O)O2)cc1
AC50 (Cytochrome P450 2C9): 3.16 µM (inconclusive)

O=C(c1cccs1)N1CCC(c2nc(O)c3nnn(Cc4ccccc4Cl)c3n2)CC1
EC50 [3]: > 50 µM (not active)
EC50 (Streptokinase A): > 150 µM (not active)
EC50 (Streptococcus): > 50 µM (not active)

N#Cc1cccc(NC(=O)N2CC[C@@]3(CCCN(S(=O)(=O)c4ccccc4)C3)C2)c1
AC50 (Cytochrome P450 2D6): 39.8 µM (inconclusive)
AC50 (Cytochrome P450 2C9): 39.8 µM (inconclusive)
AC50 (Cytochrome P450 1A2): 25.1 µM (inconclusive)
AC50 (Cytochrome P450 2C19; read-out: AC50): 39.8 µM (inconclusive)

COc1cc(/C=C2\C(=N)N3N=C(CC(=O)N4CCOCC4)SC3=NC2=O)ccc1O
IC50 [2]: 159 µM (active)

CCOC(=O)c1oc2cc(O)cc(C)c2c1C
IC50 [2]: 21 µM (active)

Nc1ccc(/N=N\c2ccccc2)c(N)n1
AC50 (Cytochrome P450 2C9): 15.8 µM (inconclusive)
AC50 (Cytochrome P450 2C19; read-out: AC50): 7.94 µM (inconclusive)

O=C(Nc1ncc2c(n1)-c1ccccc1CC2)c1cccc(Cl)c1
AC50 (Cytochrome P450 2C9): 20 µM (inconclusive)
AC50 (Cytochrome P450 1A2): 2.82 µM (inconclusive)

COc1cc(/C=C/C(=O)OCC(=O)NCC2CCCCC2)ccc1O
IC50 [2]: 39.3 µM (active)

N#Cc1ccc(OC(=O)c2ccc(NC(=N)N)cc2)cc1.c1ccncc1
AC50 (Cytochrome P450 2D6): 3.16 µM (inconclusive)
AC50 (Cytochrome P450 1A2): 2.51 µM (inconclusive)

c1cncc(-c2cc(NCc3cccs3)ncn2)c1
AC50 (Cytochrome P450 2D6): 25.1 µM (inconclusive)

COc1ccc(CNc2ncnc3ccc(-c4ccc(N(C)C)cc4)cc23)c(OC)c1
AC50 (Cytochrome P450 2D6): 25.1 µM (inconclusive)
AC50 (Cytochrome P450 2C9): 0.398 µM (inconclusive)
